# The supplement of paper PMC11208160
# Assay: recombinant UMI read abundance after kanamycin selection (control-corrected) (log10(CPM+1)); higher = more efficient recombination; extreme values may be limits of the assay; sequences stand for … in AGTGCAGAGAAAATCGGCCAGTTTTCTCTGCCTGCAGTCCGCATGCCGTGGGACCCCTTGGGTTCTAACCTGTTGCCTAGATTTATGCAGCGGACTGCCTTTCTCCCAAAGTGATAAACCGG…AGGTTGGTTTCACT; site = the 11-nt donor
# Outline: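 Counts of recombinant UMIs were reported as log10(CPM+1). Before that, they were converted to CPM, averaged over replicates and scaled using control-derived factors. They came from PCR across the donor–target junction after Escherichia coli carrying the pair library and target plasmid was plated on IPTG (0.07 mM) plus kanamycin, or unselected, in two replicates each.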
# 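Also: IS621 bridge recombinase in Escherichia coli cells against a fixed T5 target plasmid.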
row,Sequence,recombinant UMI read abundance (log10)
1,GCAAAAACATGGACCGGTTTTCCCGGTAATCCGTATTTGCT (site GCCAAAACTAG),0
2,GCAAAAACATGGACCGGTTTTCCCGGTAATCCGTATTTGCT (site GCGAAAACTAG),0
3,GCAAAAACATGGACCGGTTTTCCCGGTAATCCGTATTTGCT (site GCTAAAACTAG),0
4,GCAAACCCATGGACCGGTTTTCCCGGTAATCCGTATTTGAT (site GCAAACCCTAT),1.75
5,GCAAACGCATGGACCGGTTTTCCCGGTAATCCGTATTTGGT (site GCAAACGCTAC),1.71
6,GCAAATTCATGGACCGGTTTTCCCGGTAATCCGTATTTGTA (site GCAAATTCTTA),1.32
7,GCAACTGCATGGACCGGTTTTCCCGGTAATCCGTATTTGCC (site GCAACTGCTGG),0
8,GCAACTGCATGGACCGGTTTTCCCGGTAATCCGTATTTGCC (site GCCACTGCTGG),0
9,GCAACTGCATGGACCGGTTTTCCCGGTAATCCGTATTTGCC (site GCGACTGCTGG),0
10,GCAACTGCATGGACCGGTTTTCCCGGTAATCCGTATTTGCC (site GCTACTGCTGG),0
11,GCAATACCATGGACCGGTTTTCCCGGTAATCCGTATTTGTG (site GCAATACCTCA),0.00804
12,GCAATTACATGGACCGGTTTTCCCGGTAATCCGTATTTGTC (site GCAATTACTGA),0.939
13,GCACACCCATGGACCGGTTTTCCCGGTAATCCGTATTTGTT (site GCACACCCTAA),0.67
14,GCACATCCATGGACCGGTTTTCCCGGTAATCCGTATTTGAC (site ACACATCCTGT),2.23
15,GCACATCCATGGACCGGTTTTCCCGGTAATCCGTATTTGAC (site CCACATCCTGT),0
16,GCACATCCATGGACCGGTTTTCCCGGTAATCCGTATTTGAC (site GCACATCCTGT),0
17,GCACATCCATGGACCGGTTTTCCCGGTAATCCGTATTTGAC (site TCACATCCTGT),0.745
18,GCACTTTCATGGACCGGTTTTCCCGGTAATCCGTATTTGGG (site GCACTTTCTCC),2.31
19,GCAGACTCATGGACCGGTTTTCCCGGTAATCCGTATTTGTT (site GCAGACTCTAA),3.03

row,Sequence,recombinant UMI read abundance (log10)
1,GCAGATCCATGGACCGGTTTTCCCGGTAATCCGTATTTGCT (site GCAGATCCTAG),0
2,GCAGATTCATGGACCGGTTTTCCCGGTAATCCGTATTTGTT (site GAAGATTCTAA),0
3,GCAGATTCATGGACCGGTTTTCCCGGTAATCCGTATTTGTT (site GCAGATTCTAA),2.97
4,GCAGATTCATGGACCGGTTTTCCCGGTAATCCGTATTTGTT (site GGAGATTCTAA),0
5,GCAGATTCATGGACCGGTTTTCCCGGTAATCCGTATTTGTT (site GTAGATTCTAA),0.308
6,GCAGGCCCATGGACCGGTTTTCCCGGTAATCCGTATTTGCT (site GCAGGCCCTAG),0.921
7,GCAGGCGCATGGACCGGTTTTCCCGGTAATCCGTATTTGGT (site GCAGGCGCTAC),0.864
8,GCAGGTGCATGGACCGGTTTTCCCGGTAATCCGTATTTGAT (site ACAGGTGCTAT),2.52
9,GCAGGTGCATGGACCGGTTTTCCCGGTAATCCGTATTTGAT (site CCAGGTGCTAT),1.91
10,GCAGGTGCATGGACCGGTTTTCCCGGTAATCCGTATTTGAT (site GCAGGTGCTAT),2.1
11,GCAGGTGCATGGACCGGTTTTCCCGGTAATCCGTATTTGAT (site TCAGGTGCTAT),1.52
12,GCAGTATCATGGACCGGTTTTCCCGGTAATCCGTATTTGCA (site ACAGTATCTTG),2.95
13,GCAGTATCATGGACCGGTTTTCCCGGTAATCCGTATTTGCA (site CCAGTATCTTG),2.09
14,GCAGTATCATGGACCGGTTTTCCCGGTAATCCGTATTTGCA (site GCAGTATCTTG),2.68
15,GCAGTATCATGGACCGGTTTTCCCGGTAATCCGTATTTGCA (site TCAGTATCTTG),1.87
16,GCAGTATCATGGACCGGTTTTCCCGGTAATCCGTATTTGGA (site ACAGTATCTTG),0.785
17,GCAGTATCATGGACCGGTTTTCCCGGTAATCCGTATTTGGA (site GCAGTATCTTC),2.1
18,GCATCGACATGGACCGGTTTTCCCGGTAATCCGTATTTGCA (site GCATCGACTTG),2.56
19,GCATCTACATGGACCGGTTTTCCCGGTAATCCGTATTTGTG (site ACATCTACTCA),0.6

row,Sequence,recombinant UMI read abundance (log10)
1,GCATCTACATGGACCGGTTTTCCCGGTAATCCGTATTTGTG (site CCATCTACTCA),0.104
2,GCATCTACATGGACCGGTTTTCCCGGTAATCCGTATTTGTG (site GCATCTACTCA),0.968
3,GCATCTACATGGACCGGTTTTCCCGGTAATCCGTATTTGTG (site TCATCTACTCA),1.87
4,GCATGCACATGGACCGGTTTTCCCGGTAATCCGTATTTGTA (site GAATGCACTTA),0.245
5,GCATGCACATGGACCGGTTTTCCCGGTAATCCGTATTTGTA (site GCATGCACTTA),2.41
6,GCATGCACATGGACCGGTTTTCCCGGTAATCCGTATTTGTA (site GGATGCACTTA),0.364
7,GCATGCACATGGACCGGTTTTCCCGGTAATCCGTATTTGTA (site GTATGCACTTA),1.01
8,GCATGCGCATGGACCGGTTTTCCCGGTAATCCGTATTTGTT (site GCATGCGCTAA),1.82
9,GCATTGTCATGGACCGGTTTTCCCGGTAATCCGTATTTGCA (site GCATTGTCTTG),2.76
10,GCCAAAACATGGACCGGTTTTCCCGGTAATCCGTATTTGCT (site GCAAAAACTAG),1.08
11,GCCAAAACATGGACCGGTTTTCCCGGTAATCCGTATTTGCT (site GCCAAAACTAG),1
12,GCCAAAACATGGACCGGTTTTCCCGGTAATCCGTATTTGCT (site GCGAAAACTAG),0
13,GCCAAAACATGGACCGGTTTTCCCGGTAATCCGTATTTGCT (site GCTAAAACTAG),0
14,GCCAAACCATGGACCGGTTTTCCCGGTAATCCGTATTTGGT (site GACAAACCTAC),0
15,GCCAAACCATGGACCGGTTTTCCCGGTAATCCGTATTTGGT (site GCCAAACCTAC),0
16,GCCAAACCATGGACCGGTTTTCCCGGTAATCCGTATTTGGT (site GGCAAACCTAC),0.0048
17,GCCAAACCATGGACCGGTTTTCCCGGTAATCCGTATTTGGT (site GTCAAACCTAC),0
18,GCCAACACATGGACCGGTTTTCCCGGTAATCCGTATTTGAT (site GCCAACACTAT),1.9
19,GCCAAGCCATGGACCGGTTTTCCCGGTAATCCGTATTTGGG (site GCAAAGCCTCC),0.00342
